Tested on: NOMO1
Experiment: cell viability relative to DMSO control; higher = less cytotoxic
Settings: 48 h
Summary of the method: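 Library compounds in DMSO were pin-dosed into 1536-well plates (5 μl) holding NOMO1 or SEM (500 cells/well) or P12-Ichikawa (1000 cells/well) leukemia cells, across an 11-point threefold series of 47 μM to 0.79 nM. Each cell line had been adapted for at least four passages in each medium. CellTiter-Glo One luminescence was read after 48 h at 37°C. Viability is the per-plate percentage relative to DMSO wells, with cell-free wells as background.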

[1] = HPLM + 10% dialyzed FBS, 0.000781 µM
[2] = HPLM + 10% dialyzed FBS, 0.00234 µM
[3] = HPLM + 10% dialyzed FBS, 0.00702 µM
[4] = HPLM + 10% dialyzed FBS, 0.0211 µM
[5] = HPLM + 10% dialyzed FBS, 0.0632 µM
[6] = HPLM + 10% dialyzed FBS, 0.19 µM
[7] = HPLM + 10% dialyzed FBS, 0.569 µM
[8] = HPLM + 10% dialyzed FBS, 1.71 µM
[9] = HPLM + 10% dialyzed FBS, 5.12 µM
[10] = HPLM + 10% dialyzed FBS, 15.4 µM
[11] = HPLM + 10% dialyzed FBS, 46.1 µM
[12] = RPMI 5 mM glucose + 10% FBS, 0.000781 µM
[13] = RPMI 5 mM glucose + 10% FBS, 0.00234 µM
[14] = RPMI 5 mM glucose + 10% FBS, 0.00702 µM
[15] = RPMI 5 mM glucose + 10% FBS, 0.0211 µM
[16] = RPMI 5 mM glucose + 10% FBS, 0.0632 µM
[17] = RPMI 5 mM glucose + 10% FBS, 0.19 µM
[18] = RPMI 5 mM glucose + 10% FBS, 0.569 µM
[19] = RPMI 5 mM glucose + 10% FBS, 1.71 µM
[20] = RPMI 5 mM glucose + 10% FBS, 5.12 µM
[21] = RPMI 5 mM glucose + 10% FBS, 15.4 µM
[22] = RPMI 5 mM glucose + 10% FBS, 46.1 µM
[23] = RPMI 5 mM glucose + 10% dialyzed FBS, 0.000781 µM
[24] = RPMI 5 mM glucose + 10% dialyzed FBS, 0.00234 µM
[25] = RPMI 5 mM glucose + 10% dialyzed FBS, 0.00702 µM
[26] = RPMI 5 mM glucose + 10% dialyzed FBS, 0.0211 µM
[27] = RPMI 5 mM glucose + 10% dialyzed FBS, 0.0632 µM
[28] = RPMI 5 mM glucose + 10% dialyzed FBS, 0.19 µM
[29] = RPMI 5 mM glucose + 10% dialyzed FBS, 0.569 µM
[30] = RPMI 5 mM glucose + 10% dialyzed FBS, 1.71 µM
[31] = RPMI 5 mM glucose + 10% dialyzed FBS, 5.12 µM
[32] = RPMI 5 mM glucose + 10% dialyzed FBS, 15.4 µM
[33] = RPMI 5 mM glucose + 10% dialyzed FBS, 46.1 µM

Structure (SMILES) | cell viability [1] [%] | cell viability [2] [%] | cell viability [3] [%] | cell viability [4] [%] | cell viability [5] [%] | cell viability [6] [%] | cell viability [7] [%] | cell viability [8] [%] | cell viability [9] [%] | cell viability [10] [%] | cell viability [11] [%] | cell viability [12] [%] | cell viability [13] [%] | cell viability [14] [%] | cell viability [15] [%] | cell viability [16] [%] | cell viability [17] [%] | cell viability [18] [%] | cell viability [19] [%] | cell viability [20] [%] | cell viability [21] [%] | cell viability [22] [%] | cell viability [23] [%] | cell viability [24] [%] | cell viability [25] [%] | cell viability [26] [%] | cell viability [27] [%] | cell viability [28] [%] | cell viability [29] [%] | cell viability [30] [%] | cell viability [31] [%] | cell viability [32] [%] | cell viability [33] [%]
CCCCCOC(=O)NC\1=N\C(=O)N(\C=C1F)[C@@H]2O[C@H](C)[C@@H](O)[C@H]2O | 114 | 111 | 97 | 99.7 | 95.6 | 106 | 92.9 | 98.7 | 93.8 | 72.8 | 81.4 | 90.8 | 92.6 | 97.9 | 90.8 | 90.7 | 102 | 91.2 | 87.9 | 86.4 | 85 | 83.3 | 99.2 | 105 | 106 | 105 | 103 | 99.4 | 101 | 109 | 92 | 73.8 | 92.5
O=C(NCC[S+](=O)([O-])c1ccc(C(F)(F)F)cn1)c1ccc(Cl)cc1 | 127 | 117 | 119 | 117 | 119 | 120 | 132 | 117 | 105 | 122 | 106 | 122 | 144 | 116 | 134 | 135 | 127 | 123 | 118 | 130 | 128 | 110 |  |  |  |  |  |  |  |  |  |  | 
CCC1(C)CC(=O)NC1=O (stereo not drawn) | 114 | 116 | 105 | 118 | 102 | 111 | 104 | 93.9 | 105 | 86.7 | 84.2 | 85.5 | 89.2 | 84.7 | 87.5 | 89.2 | 92.2 | 99.2 | 81.7 | 90.3 | 94.5 | 77.4 | 104 | 98.1 | 96.7 | 94.3 | 81.3 | 101 | 98.4 | 92.7 | 96.6 | 88.2 | 87.6

Reference: the supplement of paper PMC11451515
